Reference: patent US6703382B2, “Small molecule inhibitors targeted at Bcl-2” (Georgetown University Medical Center, priority 2000, dated 2004)

Assays:
MDA-453 cells = experiment: Hoechst Dye apoptosis assay, MDA-453; type: cell-based, human; conditions: 10 μM, 12 hours, MDA-453, low Bcl-2 expression
Excerpt: (§1) Bcl-2 protein expression in human breast and other cancer cell line is characterized herein. Cell lines MCF-7, MDA-231 and MDA-361 express high levels of Bcl-2; MDA-468, BT474 and MDA-435 express median levels. […] Human myeloid leukemia cell HL-60 expresses the highest level of Bcl-2 protein among all the cell lines examined. Accordingly, MDA-231 and HL-60 cell lines with high Bcl-2 expression are positive cells and MDA-453 and T47D are negative control cells. The level of Bcl-2 protein expression is detected by Western blotting.
(§2) Using a Hoechst Dye assay, cells are treated at different doses for 12 hours and apoptotic cells are visually identified and counted under the microscope. Induction of apoptosis is evident after the treatment with Formula II at 10 μM in MDA-453 or T 47D cell lines, cells with low Bcl-2 expression.

T 47D cells = experiment: Hoechst Dye apoptosis assay, T47D; type: cell-based, human; conditions: 10 μM, 12 hours, low Bcl-2 expression
Excerpt: as §1, §2

MDA-231 cells [1] = experiment: Hoechst Dye apoptosis assay, MDA-231; type: cell-based, human; conditions: 10 μM, 12 hours, MDA-231, high Bcl-2 expression
Excerpt: as §1, §2

HL-60 cells [2] = experiment: Hoechst Dye apoptosis assay, HL-60; type: cell-based, human; conditions: 10 μM, 12 hours, HL-60, high Bcl-2 expression
Excerpt: as §1, §2

MDA-231 cells [3] = experiment: Annexin-V FACS apoptosis assay, MDA-231; type: cell-based, human; conditions: 24 hours
Procedure: (§3) The Annexin-V FACS assay yields a more quantitative assessment of the ability of Formula II to induce of apoptosis in HL-60 and MDA-231 cells. MDA-231 cells treated with 0 (untreated), 4 and 10 μM of Formula II for 24 hours provide 0, 13% and 20.0% apoptotic cells, respectively, while HL-60 cells treated with 0, 5, 10, and 20 μM of Formula II for 24 hours provide 0, 24%, 31% and 67% of apoptotic cells, respectively (FIG. 3). Therefore, Formula II induces apoptosis in a highly dose-dependent manner in MDA-231 and HL-60 cell lines with Bcl-2 protein overexpression.

HL-60 cells [4] = experiment: Annexin-V FACS apoptosis assay, HL-60; type: cell-based, human; conditions: 24 hours
Procedure: as §3

HL-60 cells [5] = experiment: Trypan-blue exclusion cell survival assay, HL-60; type: cell-based; conditions: Homo sapiens; HL-60, trypan-blue exclusion; read-out: cell killing IC50
Procedure: (§4) FIG. 3. Illustrated the effects of the compound of formula II on cell viability. Cells are plated in 24-well plates, incubated with said compound at appropriate concentrations for 14 hr. Cell viability is determined by trypan blue exclusion with hemocytometer. Percent of viable cells, as compared with untreated cells, is plotted against drug concentration.
(§5) The ability of Formula II to inhibit cell viability is highly specific and correlates well with the Bcl-2 protein expression level in these cancer cells.

MDA-231 cells [6] = experiment: Trypan-blue exclusion cell survival assay, MDA-231; type: cell-based; conditions: Homo sapiens, MDA-MB-231; MDA-231, trypan-blue exclusion; read-out: cell killing IC50
Procedure: as §4, §5

[7] = biological target: Bcl-2 (GST-fused soluble protein) / Flu-Bak-BH3 peptide (Homo sapiens, UniProt P10415); conditions: competitive FP assay, FIG. 1
Bcl-2 (GST-fused soluble protein) / Flu-Bak-BH3 peptide, sequence (P10415 1-205 limits assumed): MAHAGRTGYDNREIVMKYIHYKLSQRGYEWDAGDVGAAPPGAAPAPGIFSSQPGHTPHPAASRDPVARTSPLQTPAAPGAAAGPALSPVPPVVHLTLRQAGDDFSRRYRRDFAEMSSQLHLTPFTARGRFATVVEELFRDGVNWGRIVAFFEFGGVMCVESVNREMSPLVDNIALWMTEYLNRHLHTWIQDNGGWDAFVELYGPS

SMILES: COc1ccc2c(c1)CCc1cc(OC)ccc1[N+]([O-])=[N+]2[O-] [Formula II, 2,9-dimethoxy-11,12-dihydrodibenzo[c,g][1,2] diazocine-5,6-dioxide]
- induction of apoptosis (MDA-453 cells): evident
- induction of apoptosis (T 47D cells): evident
- induction of apoptosis (MDA-231 cells [1]): significant apoptosis
- induction of apoptosis (HL-60 cells [2]): significant apoptosis
- apoptotic cells (MDA-231 cells [3]; MDA-231, 4 μM): 13%
- apoptotic cells (MDA-231 cells [3]; MDA-231, 10 μM): 20.0%
- apoptotic cells (HL-60 cells [4]; HL-60, 5 μM): 24%
- apoptotic cells (HL-60 cells [4]; HL-60, 10 μM): 31%
- apoptotic cells (HL-60 cells [4]; HL-60, 20 μM): 67%
- IC50 (HL-60 cells [5]): 12 µM
- IC50 (MDA-231 cells [6]): 15 µM
- inhibition of the binding of the Bak-BH3 peptide to Bcl-2 in vitro [7]: inhibits the binding
